Assay results taken from US20250171437A1 (Agios Pharmaceuticals,Inc., priority 2022, published 2025).

Target: T1, human PAH with the R408W mutation (A375 R408W cells) (Homo sapiens, UniProt P00439, R408W)
T1 construct: expressed in transfected cells
T1 sequence (P00439 1-452 R408W): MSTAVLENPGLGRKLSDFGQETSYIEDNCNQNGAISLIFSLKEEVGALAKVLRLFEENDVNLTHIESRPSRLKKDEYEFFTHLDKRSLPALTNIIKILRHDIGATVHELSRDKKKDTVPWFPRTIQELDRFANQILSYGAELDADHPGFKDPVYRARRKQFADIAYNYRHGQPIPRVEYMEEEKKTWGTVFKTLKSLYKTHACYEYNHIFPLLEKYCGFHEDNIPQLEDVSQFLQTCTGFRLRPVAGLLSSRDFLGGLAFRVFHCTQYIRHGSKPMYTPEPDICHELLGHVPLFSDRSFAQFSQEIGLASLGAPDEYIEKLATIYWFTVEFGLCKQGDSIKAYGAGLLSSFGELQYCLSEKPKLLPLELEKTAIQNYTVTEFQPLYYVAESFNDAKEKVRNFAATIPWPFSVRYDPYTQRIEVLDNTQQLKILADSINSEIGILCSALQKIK
Assay: Cell Based Phenylalanine Flux Assay
Settings: A375 R408W cells; 24 hrs with compound, then 20 μM sepiapterin and 800 μM 13C9,15N-Phenylalanine for 4 hours; 13C-Tyrosine by LC-MS; average where tested multiple times
Method in brief: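 A375 cells stably expressing human PAH R408W treated 24 h at 37° C with a 10-point 2-fold dose curve in duplicate, 0.5% DMSO. Then 20 μM sepiapterin and 800 μM 13C9,15N-Phe added for 4 h; 13C-Tyr in media measured by LC-MS to give AC50.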

SMILES	AC50 [nM]
Cn1ccc(-c2nc(C(F)(F)F)c(C(=O)N3CCc4[nH]cnc4[C@@H]3c3nc4cc(F)ccc4o3)o2)n1 [Example 788, (R)-(4-(5-fluorobenzo[d]oxazol-2-yl)-6,7-dihydro-1H-imidazo[4,5-c]pyridin-5(4H)-yl)(2-(1-methyl-1H-pyrazol-3-yl)-4-(trifluoromethyl)oxazol-5-yl)methanone]	1000 to 5000
Cn1cnc(-c2nc(C(F)(F)F)c(C(=O)N3CCc4[nH]cnc4[C@@H]3c3nc4cc(F)ccc4o3)o2)c1 [Example 789, (R)-(4-(5-fluorobenzo[d]oxazol-2-yl)-6,7-dihydro-1H-imidazo[4,5-c]pyridin-5(4H)-yl)(2-(1-methyl-1H-imidazol-4-yl)-4-(trifluoromethyl)oxazol-5-yl)methanone]	1000 to 5000
Cn1cnc(-c2nc(C(F)(F)F)c(C(=O)N3CCc4[nH]cnc4[C@H]3c3nc4cc(F)ccc4o3)o2)c1 [Example 790, (S)-(4-(5-fluorobenzo[d]oxazol-2-yl)-6,7-dihydro-1H-imidazo[4,5-c]pyridin-5(4H)-yl)(2-(1-methyl-1H-imidazol-4-yl)-4-(trifluoromethyl)oxazol-5-yl)methanone]	500 to 1000
Cn1cncc1-c1nc(C(F)(F)F)c(C(=O)N2CCc3[nH]cnc3[C@H]2c2nc3cc(F)ccc3o2)o1 [Example 791, (S)-(4-(5-fluorobenzo[d]oxazol-2-yl)-6,7-dihydro-1H-imidazo[4,5-c]pyridin-5(4H)-yl)(2-(1-methyl-1H-imidazol-5-yl)-4-(trifluoromethyl)oxazol-5-yl)methanone]	500 to 1000
Cn1cncc1-c1nc(C(F)(F)F)c(C(=O)N2CCc3[nH]cnc3[C@@H]2c2nc3cc(F)ccc3o2)o1 [Example 792, (R)-(4-(5-fluorobenzo[d]oxazol-2-yl)-6,7-dihydro-1H-imidazo[4,5-c]pyridin-5(4H)-yl)(2-(1-methyl-1H-imidazol-5-yl)-4-(trifluoromethyl)oxazol-5-yl)methanone]	1000 to 5000
Cc1ncoc1C(=O)N1CCc2[nH]cnc2[C@H]1c1nc2ccccc2o1 [Example 793, (S)-(4-(benzo[d]oxazol-2-yl)-6,7-dihydro-1H-imidazo[4,5-c]pyridin-5(4H)-yl)(4-methyloxazol-5-yl)methanone]	≤ 500
Cc1ncoc1C(=O)N1CCc2[nH]cnc2[C@@H]1c1nc2ccccc2o1 [Example 794, (R)-(4-(benzo[d]oxazol-2-yl)-6,7-dihydro-1H-imidazo[4,5-c]pyridin-5(4H)-yl)(4-methyloxazol-5-yl)methanone]	1000 to 5000
O=C(c1ocnc1C(F)(F)F)N1CCc2[nH]cnc2[C@H]1c1nc2c(F)ccc(F)c2o1 [Example 795, (S)-(4-(4,7-difluorobenzo[d]oxazol-2-yl)-6,7-dihydro-1H-imidazo[4,5-c]pyridin-5(4H)-yl)(4-(trifluoromethyl)oxazol-5-yl)methanone]	≤ 500
O=C(c1ocnc1C(F)(F)F)N1CCc2[nH]cnc2[C@@H]1c1nc2c(F)ccc(F)c2o1 [Example 796, (R)-(4-(4,7-difluorobenzo[d]oxazol-2-yl)-6,7-dihydro-1H-imidazo[4,5-c]pyridin-5(4H)-yl)(4-(trifluoromethyl)oxazol-5-yl)methanone]	500 to 1000
O=C(c1ocnc1C(F)(F)F)N1CCc2[nH]cnc2[C@H]1c1nc2ccccc2o1 [Example 797, (S)-(4-(benzo[d]oxazol-2-yl)-6,7-dihydro-1H-imidazo[4,5-c]pyridin-5(4H)-yl)(4-(trifluoromethyl)oxazol-5-yl)methanone]	≤ 500

The remaining lines, values ahead:

AC50 [nM]	SMILES
500 to 1000	O=C(c1ocnc1C(F)(F)F)N1CCc2[nH]cnc2[C@@H]1c1nc2ccccc2o1 [Example 798, (R)-(4-(benzo[d]oxazol-2-yl)-6,7-dihydro-1H-imidazo[4,5-c]pyridin-5(4H)-yl)(4-(trifluoromethyl)oxazol-5-yl)methanone]
500 to 1000	O=C(c1nnc(-c2ncccc2F)o1)N1CCc2[nH]cnc2[C@@H]1c1nc2c(F)ccc(F)c2o1 [Example 799, (R)-(4-(4,7-difluorobenzo[d]oxazol-2-yl)-6,7-dihydro-1H-imidazo[4,5-c]pyridin-5(4H)-yl)(5-(3-fluoropyridin-2-yl)-1,3,4-oxadiazol-2-yl)methanone]
≤ 500	O=C(c1nnc(-c2ncccc2F)o1)N1CCc2[nH]cnc2[C@H]1c1nc2c(F)ccc(F)c2o1 [Example 800, (S)-(4-(4,7-difluorobenzo[d]oxazol-2-yl)-6,7-dihydro-1H-imidazo[4,5-c]pyridin-5(4H)-yl)(5-(3-fluoropyridin-2-yl)-1,3,4-oxadiazol-2-yl)methanone]
≤ 500	O=C(c1nnc(-c2cnn(C(F)F)c2)o1)N1CCc2[nH]cnc2[C@H]1c1nc2c(F)ccc(F)c2o1 [Example 801, (S)-(4-(4,7-difluorobenzo[d]oxazol-2-yl)-6,7-dihydro-1H-imidazo[4,5-c]pyridin-5(4H)-yl)(5-(1-(difluoromethyl)-1H-pyrazol-4-yl)-1,3,4-oxadiazol-2-yl)methanone]
500 to 1000	O=C(c1nnc(-c2cnn(C(F)F)c2)o1)N1CCc2[nH]cnc2[C@@H]1c1nc2c(F)ccc(F)c2o1 [Example 802, (R)-(4-(4,7-difluorobenzo[d]oxazol-2-yl)-6,7-dihydro-1H-imidazo[4,5-c]pyridin-5(4H)-yl)(5-(1-(difluoromethyl)-1H-pyrazol-4-yl)-1,3,4-oxadiazol-2-yl)methanone]
≤ 500	Cc1ncoc1C(=O)N1CCc2[nH]cnc2[C@H]1c1nc2c(F)ccc(F)c2o1 [Example 807, (S)-(4-(4,7-difluorobenzo[d]oxazol-2-yl)-6,7-dihydro-1H-imidazo[4,5-c]pyridin-5(4H)-yl)(4-methyloxazol-5-yl)methanone]
1000 to 5000	Cc1ncoc1C(=O)N1CCc2[nH]cnc2[C@@H]1c1nc2c(F)ccc(F)c2o1 [Example 808, (R)-(4-(4,7-difluorobenzo[d]oxazol-2-yl)-6,7-dihydro-1H-imidazo[4,5-c]pyridin-5(4H)-yl)(4-methyloxazol-5-yl)methanone]
≤ 500	CC(C)(F)c1nnc(C(=O)N2CCc3[nH]cnc3[C@@H]2c2nc3c(F)ccc(F)c3o2)o1 [Example 809, (R)-(4-(4,7-difluorobenzo[d]oxazol-2-yl)-6,7-dihydro-1H-imidazo[4,5-c]pyridin-5(4H)-yl)(5-(2-fluoropropan-2-yl)-1,3,4-oxadiazol-2-yl)methanone]
≤ 500	O=C(c1nnc(-c2cnn(C3CCC3)c2)o1)N1CCc2[nH]cnc2[C@H]1c1nc2c(F)ccc(F)c2o1 [Example 811, (S)-(5-(1-cyclobutyl-1H-pyrazol-4-yl)-1,3,4-oxadiazol-2-yl)(4-(4,7-difluorobenzo[d]oxazol-2-yl)-6,7-dihydro-1H-imidazo[4,5-c]pyridin-5(4H)-yl)methanone]
500 to 1000	O=C(c1nnc(-c2cnn(C3CCC3)c2)o1)N1CCc2[nH]cnc2[C@@H]1c1nc2c(F)ccc(F)c2o1 [Example 812, (R)-(5-(1-cyclobutyl-1H-pyrazol-4-yl)-1,3,4-oxadiazol-2-yl)(4-(4,7-difluorobenzo[d]oxazol-2-yl)-6,7-dihydro-1H-imidazo[4,5-c]pyridin-5(4H)-yl)methanone]
≤ 500	Cn1ccc(-c2nnc(C(=O)N3CCc4[nH]cnc4[C@H]3c3nc4c(F)ccc(F)c4o3)o2)n1 [Example 813]
